Values quoted from earlier work, collected in patent US20240180834A1, “DEVELOPMENT OF COVID-19 VACCINE USING A DUAL TLR LIGAND LIPOSOME ADJUVANT” (priority 2021, published 2024).

Settings: earlier work

## CCCCCCCCCCCCCCCCCC(=O)NCCCCOn1c(CCCC)nc2c(N)nc3ccccc3c21 [3M-052, N-[4-(4-amino-2-butylimidazo[4,5-c]quinolin-1-yl)oxybutyl]octadecanamide]
  type of immune response elicited by the TLR agonist in the nanoliposome adjuvant: elicited a robust systemic Th1 response
